{
  "source": "patent US20240124417A1",
  "about": "“COMPOUNDS USEFUL AS IMMUNOMODULATORS” (Bristol-Myers Squibb Company, priority 2019, published 2024)",
  "data": [
    {"target": "T1, PD-1/PD-L1 (Homo sapiens, UniProt Q9NZQ7)", "T1 construct": "TVMV protease site linker (C); made in house; host or cells: HEK293T cells", "T1 sequence (Q9NZQ7 18-239)": "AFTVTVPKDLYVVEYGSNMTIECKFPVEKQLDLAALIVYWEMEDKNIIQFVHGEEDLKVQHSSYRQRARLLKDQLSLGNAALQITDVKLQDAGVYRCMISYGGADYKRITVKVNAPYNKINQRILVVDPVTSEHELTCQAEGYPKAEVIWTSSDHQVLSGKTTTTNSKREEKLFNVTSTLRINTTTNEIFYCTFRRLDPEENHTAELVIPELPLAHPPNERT", "assay": "PD-1/PD-L1 Homogenous Time-Resolved Fluorescence (HTRF) binding assay", "settings": "PD-L1-His 10 nM, PD-1-Ig 20 nM", "outline": "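Time-resolved FRET read-out using Eu-cryptate anti-Ig (1 nM final) and APC anti-His (20 nM final). Tagged extracellular domains were used in BSA/Tween-20-supplemented dPBS, with compound pre-incubated 15 min with PD-L1-His (10 nM) before PD-1-Ig (20 nM) was added for 15 min. Other human pairs: PD-L2-His 5 nM with PD-1-Ig 20 nM; PD-L1-Ig 10 nM with CD80-His 100 nM.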", "units": {"IC50": "nM"}, "values": [
      {"smiles": "Cc1nc2c(s1)CN(Cc1cc(Cl)c(OCc3cccc(-c4cccc(OCC5CCCN(C)C5)c4Cl)c3C)cc1OCc1cncc(C#N)c1)CC2", "note": "(stereo not drawn) [Example 2600, 5-((4-chloro-5-((2′-chloro-2-methyl-3′-((1-methylpiperidin-3-yl)methoxy)-[1,1′-biphenyl]-3-yl)methoxy)-2-((2-methyl-6,7-dihydrothiazolo[5,4-c]pyridin-5(4H)-yl)methyl)phenoxy)methyl)nicotinonitrile]", "IC50": 7.2},
      {"smiles": "Cc1c(COc2cc(OCc3cncc(C#N)c3)c(CNCc3ncc4ccccn34)cc2Cl)cccc1-c1cccc(OCCCN2CC[C@@H](O)C2)c1C", "note": "[Example 2565, (R)-5-((4-chloro-5-((3′-(3-(3-hydroxypyrrolidin-1-yl)propoxy)-2,2′-dimethyl-[1,1′-biphenyl]-3-yl)methoxy)-2-(((imidazo[1,5-a]pyridin-3-ylmethyl)amino)methyl)phenoxy)methyl)nicotinonitrile]", "IC50": 4.7},
      {"smiles": "Cc1c(COc2cc(OCc3cncc(C#N)c3)c(CN(C)Cc3nc[nH]n3)cc2Cl)cccc1-c1cccc(OCC2CCCN(C)C2)c1Cl", "note": "(stereo not drawn) [Example 2618, 5-((2-((((1H-1,2,4-triazol-3-yl)methyl)(methyl)amino)methyl)-4-chloro-5-((2′-chloro-2-methyl-3′-((1-methylpiperidin-3-yl)methoxy)-[1,1′-biphenyl]-3-yl)methoxy)phenoxy)methyl)nicotinonitrile]", "IC50": 0.7},
      {"smiles": "Cc1c(COc2cc(OCc3cncc(C#N)c3)c(CN(C)CCc3nc4ccccc4n3C)cc2Cl)cccc1-c1cccc(OCCCN2CC[C@@H](O)C2)c1C", "note": "[Example 2510, (R)-5-((4-chloro-5-((3′-(3-(3-hydroxypyrrolidin-1-yl)propoxy)-2,2′-dimethyl-[1,1′-biphenyl]-3-yl)methoxy)-2-((methyl(2-(1-methyl-1H-benzo[d]imidazol-2-yl)ethyl)amino)methyl)phenoxy)methyl)nicotinonitrile]", "IC50": 3.3},
      {"smiles": "CC(=O)NC1CCN(CCCOc2cccc(-c3cccc(COc4cc(OCc5cncc(C#N)c5)c(CN5CCCCC5c5ncc[nH]5)cc4Cl)c3C)c2C)CC1", "note": "(stereo not drawn) [Example 1045, N-(1-(3-((3′-((4-((2-(1H-Imidazol-2-yl)piperidin-1-yl)methyl)-2-chloro-5-((5-cyano-pyridin-3-yl)methoxy)phenoxy)methyl)-2,2′-dimethyl-[1,1′-biphenyl]-3-yl)oxy)propyl)-piperidin-4-yl)acetamide]", "IC50": 3.8},
      {"smiles": "Cc1c(COc2cc(OCc3cncc(C#N)c3)c(CNCc3ncc(-c4ccccc4)o3)cc2Cl)cccc1-c1cccc(OCCCN2CC[C@@H](O)C2)c1C", "note": "[Example 2566, (R)-5-((4-chloro-5-((3′-(3-(3-hydroxypyrrolidin-1-yl)propoxy)-2,2′-dimethyl-[1,1′-biphenyl]-3-yl)methoxy)-2-((((5-phenyloxazol-2-yl)methyl)amino)methyl)phenoxy)methyl)nicotinonitrile]", "IC50": 48.6},
      {"smiles": "Cc1c(COc2cc(OCc3cncc(C#N)c3)c(CN(C)Cc3cc[nH]n3)cc2Cl)cccc1-c1cccc(OCCCN2CCC(O)(CO)CC2)c1Cl", "note": "[Example 2016, 5-((2-((((1H-pyrazol-3-yl)methyl)(methyl)amino)methyl)-4-chloro-5-((2′-chloro-3′-(3-(4-hydroxy-4-(hydroxymethyl)piperidin-1-yl)propoxy)-2-methyl-[1,1′-biphenyl]-3-yl)methoxy)phenoxy)methyl)nicotinonitrile]", "IC50": 0.2},
      {"smiles": "Cc1onc(-c2ccccc2)c1CN(C)Cc1cc(Cl)c(OCc2cccc(-c3cccc(OCCCN4CC[C@@H](O)C4)c3C)c2C)cc1OCc1cncc(C#N)c1", "note": "[Example 2523, (R)-5-((4-chloro-5-((3′-(3-(3-hydroxypyrrolidin-1-yl)propoxy)-2,2′-dimethyl-[1,1′-biphenyl]-3-yl)methoxy)-2-((methyl((5-methyl-3-phenylisoxazol-4-yl)methyl)amino)methyl)phenoxy)methyl)nicotinonitrile]", "IC50": 178},
      {"smiles": "Cc1c(COc2cc(OCc3cncc(C#N)c3)c(CNCc3cc4ccccn4n3)cc2Cl)cccc1-c1cccc(OCC2CCCN(C)C2)c1Cl", "note": "(stereo not drawn) [Example 2602, 5-((4-chloro-5-((2′-chloro-2-methyl-3′-((1-methylpiperidin-3-yl)methoxy)-[1,1′-biphenyl]-3-yl)methoxy)-2-(((pyrazolo[1,5-a]pyridin-2-ylmethyl)amino)methyl)phenoxy)methyl)nicotinonitrile]", "IC50": 1.6},
      {"smiles": "Cc1c(COc2cc(OCc3cncc(C#N)c3)c(CN3CCCC(c4nnn[nH]4)C3)cc2Cl)cccc1-c1cccc(OCCCN2CC[C@@H](O)C2)c1C", "note": "(stereo partly drawn) [Example 1018, 5-((2-((3-(1H-Tetrazol-5-yl)piperidin-1-yl)methyl)-4-chloro-5-((3′-(3-((R)-3-hydroxy-pyrrolidin-1-yl)propoxy)-2,2′-dimethyl-[1,1′-biphenyl]-3-yl)methoxy)phenoxy)methyl)-nicotinonitrile]", "IC50": 0.5},
      {"smiles": "Cc1c(COc2cc(OCc3cncc(C#N)c3)c(CN(C)Cc3c[nH]cn3)cc2Cl)cccc1-c1cccc(OCCCN2CC[C@@H](O)C2)c1C", "note": "[Example 2007, (R)-5-((2-((((1H-imidazol-4-yl)methyl)(methyl)amino)methyl)-4-chloro-5-((3′-(3-(3-hydroxypyrrolidin-1-yl)propoxy)-2,2′-dimethyl-[1,1′-biphenyl]-3-yl)methoxy)phenoxy)methyl)nicotinonitrile]", "IC50": 0.6},
      {"smiles": "Cc1ncsc1CCNCc1cc(Cl)c(OCc2cccc(-c3cccc(OCC4CCCN(C)C4)c3Cl)c2C)cc1OCc1cncc(C#N)c1", "note": "(stereo not drawn) [Example 2594, 5-((4-chloro-5-((2′-chloro-2-methyl-3′-((1-methylpiperidin-3-yl)methoxy)-[1,1′-biphenyl]-3-yl)methoxy)-2-(((2-(4-methylthiazol-5-yl)ethyl)amino)methyl)phenoxy)methyl)nicotinonitrile]", "IC50": 0.7},
      {"smiles": "Cc1c(COc2cc(OCc3cncc(C#N)c3)c(CN(C)Cc3nn(C)cc3Cl)cc2Cl)cccc1-c1cccc(OCCCN2CC[C@@H](O)C2)c1C", "note": "[Example 2027, (R)-5-((4-chloro-2-((((4-chloro-1-methyl-1H-pyrazol-3-yl)methyl)(methyl)amino)methyl)-5-((3′-(3-(3-hydroxypyrrolidin-1-yl)propoxy)-2,2′-dimethyl-[1,1′-biphenyl]-3-yl)methoxy)phenoxy)methyl)nicotinonitrile]", "IC50": 2.3},
      {"smiles": "Cc1c(COc2cc(OCc3cncc(C#N)c3)c(CNCc3cccnc3)cc2Cl)cccc1-c1cccc(OCCCN2CC[C@@H](O)C2)c1C", "note": "[Example 2018, (R)-5-((4-chloro-5-((3′-(3-(3-hydroxypyrrolidin-1-yl)propoxy)-2,2′-dimethyl-[1,1′-biphenyl]-3-yl)methoxy)-2-(((pyridin-3-ylmethyl)amino)methyl)phenoxy)methyl)nicotinonitrile]", "IC50": 0.8},
      {"smiles": "Cc1c(COc2cc(OCc3cncc(C#N)c3)c(CNCC(C)c3nnn[nH]3)cc2Cl)cccc1-c1cccc(OCCCN2CC[C@@H](O)C2)c1C", "note": "(stereo partly drawn) [Example 1013, 5-((2-(((2-(1H-Tetrazol-5-yl)propyl)amino)methyl)-4-chloro-5-((3′-(3-((R)-3-hydroxy-pyrrolidin-1-yl)propoxy)-2,2′-dimethyl-[1,1′-biphenyl]-3-yl)methoxy)phenoxy)methyl)-nicotinonitrile]", "IC50": 3.2},
      {"smiles": "Cc1c(COc2cc(OCc3cncc(C#N)c3)c(CNCc3cc4ccccn4n3)cc2Cl)cccc1-c1cccc(OCCCN2CC[C@@H](O)C2)c1C", "note": "[Example 2537, (R)-5-((4-chloro-5-((3′-(3-(3-hydroxypyrrolidin-1-yl)propoxy)-2,2′-dimethyl-[1,1′-biphenyl]-3-yl)methoxy)-2-(((pyrazolo[1,5-a]pyridin-2-ylmethyl)amino)methyl)phenoxy)methyl)nicotinonitrile]", "IC50": 6.5},
      {"smiles": "Cc1c(COc2cc(OCc3cncc(C#N)c3)c(CN(C)Cc3cc[nH]n3)cc2Cl)cccc1-c1cccc(OCCCN2CC[C@@H](O)C2)c1C", "note": "[Example 2005, (R)-5-((2-((((1H-pyrazol-3-yl)methyl)(methyl)amino)methyl)-4-chloro-5-((3′-(3-(3-hydroxypyrrolidin-1-yl)propoxy)-2,2′-dimethyl-[1,1′-biphenyl]-3-yl)methoxy)phenoxy)methyl)nicotinonitrile]", "IC50": 2.5},
      {"smiles": "CC(=O)NC1CCN(CCCOc2cccc(-c3cccc(COc4cc(OCc5cncc(C#N)c5)c(CNCC(C)c5nnn[nH]5)cc4Cl)c3C)c2C)CC1", "note": "(stereo not drawn) [Example 1050, N-(1-(3-((3′-((4-(((2-(1H-Tetrazol-5-yl)propyl)amino)methyl)-2-chloro-5-((5-cyano-pyridin-3-yl)methoxy)phenoxy)methyl)-2,2′-dimethyl-[1,1′-biphenyl]-3-yl)oxy)propyl)-piperidin-4-yl)acetamide]", "IC50": 0.7},
      {"smiles": "Cc1c(COc2cc(OCc3cncc(C#N)c3)c(CNCc3cocn3)cc2Cl)cccc1-c1cccc(OCCCN2CC[C@@H](O)C2)c1C", "note": "[Example 2539, (R)-5-((4-chloro-5-((3′-(3-(3-hydroxypyrrolidin-1-yl)propoxy)-2,2′-dimethyl-[1,1′-biphenyl]-3-yl)methoxy)-2-(((oxazol-4-ylmethyl)amino)methyl)phenoxy)methyl)nicotinonitrile]", "IC50": 0.7},
      {"smiles": "Cc1c(COc2cc(OCc3cncc(C#N)c3)c(CNCc3ccccn3)cc2Cl)cccc1-c1cccc(OCCCN2CC[C@@H](O)C2)c1C", "note": "[Example 2017, (R)-5-((4-chloro-5-((3′-(3-(3-hydroxypyrrolidin-1-yl)propoxy)-2,2′-dimethyl-[1,1′-biphenyl]-3-yl)methoxy)-2-(((pyridin-2-ylmethyl)amino)methyl)phenoxy)methyl)nicotinonitrile]", "IC50": 2.1},
      {"smiles": "Cc1c(COc2cc(OCc3cncc(C#N)c3)c(CNCCc3nc4cc(Cl)ccc4[nH]3)cc2Cl)cccc1-c1cccc(OCC2CCCN(C)C2)c1Cl", "note": "(stereo not drawn) [Example 2613, 5-((4-chloro-2-(((2-(5-chloro-1H-benzo[d]imidazol-2-yl)ethyl)amino)methyl)-5-((2′-chloro-2-methyl-3′-((1-methylpiperidin-3-yl)methoxy)-[1,1′-biphenyl]-3-yl)methoxy)phenoxy)methyl)nicotinonitrile]", "IC50": 2.2}
    ]}
  ]
}
